# Test results: US20150119363A1, “METHODS OF TREATING BACTERIAL INFECTIONS” (Rampex Pharmaceuticals, Inc., priority 2012, published 2015)
# Columns and labels:
# [1] = tested on: Escherichia coli (EC1061) NDM-1; test: Biapenem MIC at various concentrations of Compound 5; assay type: cell-based; conditions: EC1061 NDM-1
# [2] = tested on: Klebsiella oxytoca KX1017 (KPC-2, OXA-2, SHV-30); test: Checkerboard assay, Compound 5 with biapenem; assay type: cell-based; conditions: KX1017
# Excerpt: (§1) The potentiation effect is observed by the reduction of the minimum inhibitory concentration of β-lactam antibiotics in the presence of β-lactamase inhibitors (BLIs). […] Methods for Dilution of Antimicrobial Susceptibility Tests for Bacteria That Grow Aerobically—Eighth Edition; Approved Standard. CLSI Document M07-A8, 2009). In this assay, multiple dilutions of two drugs, namely BLI and β-lactam (biapenem), are being tested, alone and in combination, at concentrations equal to, above and below their respective minimal inhibitory concentrations (MICs). BLIs are solubilized in 10% DMSO at 10 mg/mL. Stock solutions are further diluted, according to the needs of a particular assay, in Mueller Hinton Broth (MHB). Stock solution can be stored at −80° C.
# (§2) The checkerboard (CB) assay is performed in microtiter plates. Biapenem is diluted in the x axis, each column containing a single concentration of antibiotic. BLIs are diluted in the y axis, each row containing an equal concentration of BLI. The result of these manipulations is that each well of the microtiter plate contains a unique combination of concentrations of the two agents. The assay is performed in MHB with a final bacterial inoculum of 5×10^5 CFU/mL (from an early-log phase culture). Microtiter plates are incubated during 20 h at 35° C. and are read using a microtiter plate reader (Molecular Devices) at 650 nm as well as visual observation using a microtiter plate reading mirror.
# [3] = tested on: Klebsiella pneumoniae KP1004 (KPC-2); test: Checkerboard assay, Compound 5 with biapenem; assay type: cell-based; conditions: KP1004
# Excerpt: as §1, §2
# [4] = tested on: Klebsiella oxytoca KX1018 (KPC-2, SHV-40, OXY-1); test: Checkerboard assay, Compound 5 with biapenem; assay type: cell-based; conditions: KX1018
# Excerpt: as §1, §2
# [5] = tested on: Klebsiella pneumoniae KP1083 (KPC-3, SHV-1, TEM-1); test: Checkerboard assay, Compound 5 with biapenem; assay type: cell-based; conditions: KP1083
# Excerpt: as §1, §2
# [6] = target: T1, KPC-3 (Escherichia coli EC1007 lysate) (Klebsiella pneumoniae, UniProt Q9F663, H272Y); test: Inhibition of biapenem hydrolysis by bacterial lysate; assay type: biochemical; conditions: EC1007 KPC-3 lysate; read-out: IC50 (μg/mL) of inhibition of biapenem hydrolysis
# T1 construct: Lysates were prepared from bacteria expressing various β-lactamases as a source of enzymes; endogenous in cells; host or cells: Escherichia coli strain EC1007 (freeze-thaw lysate supernatant)
# T1 sequence (Q9F663 25-293 H272Y): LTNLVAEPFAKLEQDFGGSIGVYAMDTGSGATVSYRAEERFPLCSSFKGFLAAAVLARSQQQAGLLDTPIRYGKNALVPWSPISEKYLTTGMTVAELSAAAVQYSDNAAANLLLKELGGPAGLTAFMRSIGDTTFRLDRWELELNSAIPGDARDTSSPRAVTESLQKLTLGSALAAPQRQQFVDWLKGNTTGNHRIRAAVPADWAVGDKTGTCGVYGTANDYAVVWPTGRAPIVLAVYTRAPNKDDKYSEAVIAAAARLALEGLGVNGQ
# Method: (§3) The activity of β-lactamase inhibitors to inhibit hydrolysis of biapenem was studied. Lysates were prepared from bacteria expressing various β-lactamases as a source of enzymes. Bacterial lysates were prepared as follows. A single colony from the fresh overnight plate was transferred to 5 mL of LB broth and grown to OD600=0.6-0.8. Next, this culture was transferred to 500 mL of LB and grown to OD600=0.7-0.9. Cells were pelleted by centrifugation at 5000 RPM (JA-14 rotor) for 15 minutes at room temperature. The pellet was resuspended in 10 mL of PBS. Five freeze-thaw cycles by putting cells at −20° C. and thawing them at the room temperature were next applied. After the last thaw step cells were spun down at 18K for 30 minutes and the supernatant was collected. This lysate was stored at −20° C.
# (§4) Next, the activity of bacterial lysates was optimized for biapenem cleavage as follows. 50 μl of buffer A (50 mM Sodium Phosphate pH=7; 0.5% glucose, 1 mM MgCl2) was added to each well of 96-well UV-transparent plate. 50 μl of lysate was titrated vertically in 96-well plate column to generate 2-fold lysate dilutions. 100 μl of buffer A was added to each well, placed in plate reader at 37° C. and incubated for 15 minutes. 50 μl of 50 μg/mL solutions of biapenem in buffer A (pre-incubated at 37° C. for 15 minutes) were added to each well. Hydrolysis of biapenem was measured at 296 nm. This experiment was used to determine the optimal lysate dilution which produced a linear curve of relative UV signal that decreased to approximately OD=0.3-0.5 over 1 hour.
# (§5) Finally, the potency of cyclic boronic acid derivative to inhibit the cleavage of biapenem cleavage by bacterial lysates was determined. 100 μl of buffer A (50 mM Sodium Phosphate pH=7; 0.5% glucose, 1 mM MgCl2) was added to each well of 96-well UV-transparent plate. 50 μl of 6× cyclic boronic acid derivative solution in buffer A was titrated vertically in 96-well plate column to generate 3-fold dilutions. 50 μl of diluted lysate in buffer A (optimal dilution is determined in experiment above) was added, and the plate was incubated in the plate reader at 37° C. for 15 minutes. 50 μl of 50 μg/mL solution of biapenem in buffer A (pre-incubated at 37° C. for 15 minutes) were next added to each well and hydrolysis of biapenem was recorded at 296 nm. EC50 of inhibition was determined by plotting the rate of biapenem cleavage vs. cyclic boronic acid derivative concentration.
# [7] = target: T2, SME-2 (Serratia marcescens SM1000 lysate) (Serratia marcescens, UniProt P52682); test: as above; assay type: biochemical; conditions: SM1000 SME-2 lysate; read-out: IC50 (μg/mL) of inhibition of biapenem hydrolysis
# T2 construct: Lysates were prepared from bacteria expressing various β-lactamases as a source of enzymes
# T2 sequence (P52682 28-294 limits assumed): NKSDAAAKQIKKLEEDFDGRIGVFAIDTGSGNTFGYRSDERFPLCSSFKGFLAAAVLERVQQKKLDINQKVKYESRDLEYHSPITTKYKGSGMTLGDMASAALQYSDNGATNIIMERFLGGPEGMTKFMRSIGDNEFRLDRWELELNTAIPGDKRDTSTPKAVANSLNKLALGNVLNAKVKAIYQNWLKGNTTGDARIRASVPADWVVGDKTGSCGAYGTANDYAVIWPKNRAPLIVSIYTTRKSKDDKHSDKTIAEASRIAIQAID
# Method: as §3, §4, §5
# [8] = target: T3, KPC-2 (Klebsiella pneumoniae KP1008 lysate) (Klebsiella pneumoniae, UniProt Q9F663); test: as above; assay type: biochemical
# T3 construct: Lysates were prepared from bacteria expressing various β-lactamases as a source of enzymes; endogenous in cells; host or cells: Klebsiella pneumoniae strains KP1004 and KP1008 (freeze-thaw lysate supernatants)
# T3 sequence (Q9F663 25-293 limits assumed): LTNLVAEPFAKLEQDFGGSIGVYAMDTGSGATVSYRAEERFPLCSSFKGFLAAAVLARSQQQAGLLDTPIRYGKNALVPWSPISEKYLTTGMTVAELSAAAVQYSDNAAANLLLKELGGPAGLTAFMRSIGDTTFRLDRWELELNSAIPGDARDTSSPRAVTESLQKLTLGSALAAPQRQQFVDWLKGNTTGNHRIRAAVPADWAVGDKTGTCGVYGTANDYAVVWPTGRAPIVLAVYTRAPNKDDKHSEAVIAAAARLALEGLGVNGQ
# Method: as §3, §4, §5
# [9] = target: T4, KPC-2 (Klebsiella pneumoniae KP1004 lysate) (Klebsiella pneumoniae, UniProt Q9F663); test: as above; assay type: biochemical
# T4 construct: Lysates were prepared from bacteria expressing various β-lactamases as a source of enzymes; endogenous in cells; host or cells: Klebsiella pneumoniae strains KP1004 and KP1008 (freeze-thaw lysate supernatants)
# T4 sequence (Q9F663 25-293 limits assumed): as above
# Method: as §3, §4, §5
# [10] = tested on: strains expressing KPC alone or in combination with additional beta-lactamases; test: Checkerboard assay, Compound 5 with biapenem (summary); assay type: cell-based; conditions: highest concentration of Compound 5 10 mg/L
# Excerpt: as §1
# as §2, with “The assay is performed in MHB with a final bacterial inoculum of 5×10^5 CFU/mL (from an early-log phase culture).” left out
structure (smiles),measurement,setting,value
"O=C(O)C[C@@H]1CC[C@H](NC(=O)Cc2cccs2)B(O)O1 [Compound 5, 2-((3R,6S)-2-hydroxy-3-(2-(thiophen-2-yl)acetamido)-1,2-oxaborinan-6-yl)acetic acid]",Biapenem MIC,[1]; Compound 5 0.31 μg/ml,0.13 µg/mL
same,Biapenem MIC,[1]; Compound 5 0.63 μg/ml,0.13 µg/mL
same,Biapenem MIC,[1]; Compound 5 5 μg/ml,0.125 µg/mL
same,Biapenem MIC,[1]; Compound 5 10 μg/ml,0.06 µg/mL
same,Biapenem MIC,[1]; Compound 5 20 μg/ml,0.06 µg/mL
same,Biapenem MIC,[2]; Compound 5 0.31 mg/L,Y (Y = MIC of 0.5 mg/L to 4 mg/L.)
same,Biapenem MIC,[2]; Compound 5 0.625 mg/L,X (X = MIC of less than 0.5 mg/L.)
same,Biapenem MIC,[2]; Compound 5 5 mg/L,X (X = MIC of less than 0.5 mg/L.)
same,Biapenem MIC,[2]; Compound 5 10 mg/L,X (X = MIC of less than 0.5 mg/L.)
same,Biapenem MIC,[3]; Compound 5 0.31 mg/L,X (X = MIC of less than 0.5 mg/L.)
same,Biapenem MIC,[3]; Compound 5 0.625 mg/L,X (X = MIC of less than 0.5 mg/L.)
same,Biapenem MIC,[3]; Compound 5 5 mg/L,X (X = MIC of less than 0.5 mg/L.)
same,Biapenem MIC,[3]; Compound 5 10 mg/L,X (X = MIC of less than 0.5 mg/L.)
same,Biapenem MIC,[3]; Compound 5 […],X (X = MIC of less than 0.5 mg/L.)
same,Biapenem MIC,[4]; Compound 5 0.31 mg/L,X (X = MIC of less than 0.5 mg/L.)
same,Biapenem MIC,[4]; Compound 5 0.625 mg/L,X (X = MIC of less than 0.5 mg/L.)
same,Biapenem MIC,[4]; Compound 5 5 mg/L,NG (NG = No Growth.)
same,Biapenem MIC,[4]; Compound 5 10 mg/L,NG (NG = No Growth.)
same,Biapenem MIC,[4]; Compound 5 […],X (X = MIC of less than 0.5 mg/L.)
same,Biapenem MIC,[5]; Compound 5 0.31 mg/L,X (X = MIC of less than 0.5 mg/L.)
same,Biapenem MIC,[5]; Compound 5 0.625 mg/L,X (X = MIC of less than 0.5 mg/L.)
same,Biapenem MIC,[5]; Compound 5 5 mg/L,X (X = MIC of less than 0.5 mg/L.)
same,IC50,[6],< 337 nM
same,IC50,[7],< 337 nM
same,IC50,[8],337 to 3370 nM
same,IC50,[9],< 337 nM
same,potentiation of biapenem,[10],significantly potentiate biapenem
